Where a SMILES comes first, the peptide text is derived from it. [ ]: non-standard residue; d: D form. Nle = CCCC[C@H](N)C(=O)O
Tests used:
Type in all cases: cell-based
[1] = system: nuclear PK-M2 processing in Cos-7 cells; test: protease inhibitor pre-treatment, electrophoretic mobility of nuclear PK-M2; conditions: Cos-7 cells pre-treated with protease inhibitor
[2] = system: endogenous PK-M2 in Cos-7 cells; test: subcellular localisation of endogenous PK-M2, cytosolic/nuclear fractions, Western-blot; conditions: 50 μM TT-232 or 100 μM hydrogen-peroxide, FIG. 8
Method: Subcellular localisation of endogenous PK-M2 upon peroxide or UV stimulation. Cos-7 cells were untreated, treated with 50 μM TT-232 (A), 100 μM hydrogen-peroxide (B), or 120 mJ/cm^2 UV (C) and incubated for different times as indicated. Cells were separated into cytosolic (c) or nuclear (n) fractions loaded in triplicate and blotted with PK-M2 (uppest panels), Erk-2 (middle panels) or Histone H1 (lowest panels).
In order investigate further Cos-7 cells were treated, separated into cytosolic and nuclear fractions by NP-40 lysis and analysed with polyclonal PKM2 specific antibody (Weernink et al., 1988) for endogenous PK-M2 by Western-blots. To rule out cross contamination, samples were loaded in triplicate and blotted with PK-M2, Erk-2 or Histone H1 antibodies.

[3] = target: T1, pEGFP-PK-M2 (pyruvate-kinase fused to GFP) in Cos-7 cells (Homo sapiens, UniProt P14618); test: nuclear translocation of GFP-fused pyruvate-kinase in transiently transfected Cos-7 cells; conditions: pEGFP-PK-M2, 1 mM hydrogen peroxide for 4 hours, FIG. 4
T1 construct: producing wild type pyruvate-kinase N-terminally fused to GFP; expressed in transfected cells; host or cells: Cos-7
T1 sequence (P14618 whole entry, the tested form may be a part): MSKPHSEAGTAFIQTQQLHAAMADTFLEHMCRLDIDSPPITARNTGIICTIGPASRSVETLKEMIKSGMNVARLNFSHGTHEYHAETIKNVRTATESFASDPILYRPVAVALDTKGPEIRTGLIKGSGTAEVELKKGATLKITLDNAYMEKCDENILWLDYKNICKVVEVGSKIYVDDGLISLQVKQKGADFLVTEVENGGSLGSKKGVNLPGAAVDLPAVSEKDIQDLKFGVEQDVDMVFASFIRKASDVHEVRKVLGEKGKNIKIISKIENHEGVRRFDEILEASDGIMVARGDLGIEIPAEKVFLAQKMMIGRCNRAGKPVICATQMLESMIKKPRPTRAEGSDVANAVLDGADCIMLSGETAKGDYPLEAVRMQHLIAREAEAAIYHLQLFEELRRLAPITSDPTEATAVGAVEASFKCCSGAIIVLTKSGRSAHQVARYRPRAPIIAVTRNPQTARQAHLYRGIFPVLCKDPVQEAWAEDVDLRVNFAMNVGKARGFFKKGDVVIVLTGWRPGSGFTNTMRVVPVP
From the text: Nuclear translocation of the pyruvate-kinase upon different apoptotic stimuli. Cos-7 cells were transiently transfected with pEGFP-PK-M2 eukaryotic expression plasmid (producing wild type pyruvate-kinase N-terminally fused to GFP)
Nuclear translocation of the pyruvate-kinase deletion mutants upon apoptotic stimuli. […] (Ex: 485 nm=GFP, Ex: 390=propidium-iodide)
Cells were fixed with 1% glutaraldehyde and the localisation of GFP was detected and analysed with fluorescent microscope and InoVision confocal imaging software. Nuclei were stained with propidium-iodine (FIG. 5).

Structure (SMILES): Cc1ccc(S(=O)(=O)N[C@@H](Cc2ccccc2)C(=O)CCl)cc1 [TPCK]
- reversal of increased electrophoretic mobility of nuclear enzyme [1]: not able to revert this effect

Structure (SMILES): CCCC[C@@H](C=O)NC(=O)[C@H](CC(C)C)NC(=O)[C@H](CC(C)C)NC(C)=O [ALLN] (Ac-Leu-Leu-[Nle]-aldehyde)
- reversal of increased electrophoretic mobility of nuclear enzyme [1]: not able to revert this effect

Structure (SMILES): NCCc1ccc(S(=O)(=O)F)cc1 [AEBSF]
- reversal of increased electrophoretic mobility of nuclear enzyme [1]: not able to revert this effect

Structure (SMILES): OO [hydrogen peroxide]
- translocation of endogenous PK-M2 into the nucleus [2]: induced the translocation of the endogenous PK-M2 into the nucleus
- nuclear translocation of GFP-fused pyruvate-kinase [3]: nuclear translocation of the pyruvate-kinase occurs

Reference: US20040152648A1, “Pyruvate-kinase as a novel target molecule” (priority 2001, published 2004)
